Results on 3 molecules are retold here after article PMC5874820 (Pharmaceutics, 2018).

The test system of one series is PANC-1 xenograft tumor. The experiment in a line: In vivo PANC-1 tumor growth xenograft model. The conditions noted are these: for percentage of inhibition of tumor growth: Panc-1 xenograft in nude mice. More on the design: species or system female athymic nude mice. As to the method: The PANC-1 cells derived from human pancreatic carcinoma of ductal cell origin were obtained from National Center for Cell Science, Pune, India. The cells were cultured in Dulbecco's modified medium (DMEM) supplemented with 10% v/v fetal bovine serum (FBS), 1% penicillin, and 1% streptomycin. Cultures (Figure S1, Supplementary Materials) were maintained at 37 °C in a humidified atmosphere with 5% CO2. Female athymic nude mice were obtained from the National Centre for Laboratory Animal Sciences (NCLAS), National Institute of Nutrition (ICMR), Hyderabad, India and were selected after careful initial screening for any external signs of disease or injuries. They were housed in individual cages in the conventional animal facilities of NCLAS, a registered facility with Committee for the Purpose of Control and Supervision of Experimentation on Animals (CPCSEA) (154/1999), Government of India. The environmental conditions were kept at 21 ± 2 °C, with 10-15 air changes per hour and relative humidity of 50-55 percent with 12 h light/dark cycle water. Animals were quarantined for 4 days and all the animals had free access to sterile formulated feed pellets and filtered potable clean water. PANC-1 cells (1 × 10^6) using matrigel were injected subcutaneously into the flanks of mice (Figure S2, Supplementary Materials). […] Each mouse was administered orally (p.o.) every day with either control vehicle (CMC), CUR (50 mg/kg), ART (50 mg/kg), CUR-ART (50 and 100 mg/kg) and Doxorubicin (2 mg/kg) by intravenous (i.v.) route. […] At the same time, the body weight of each animal was measured. At the end of the experiment (4 weeks after cell inoculation), the animals were euthanized by CO2 and sacrificed. Tumors from each animal were removed and measured. Each value represents mean ± SD (Standard Deviation). The control and experimental animal groups were compared by paired t-test. **** p < 0.0001 was considered significant.

On the set-up of series [1]: method as in doi:10.1039/C4RA11935E. The conditions noted are these: curcumin (crystalline), oral dose of 200 mg/kg, male SD rats; cited from earlier work.
The conditions of series [2]: cited from earlier work.
A short description of series [3]: Supersaturation study in SGF and SIF (without enzyme), UV at 420 nm. It counts as physicochemical. The conditions noted are these: 100 µg/mL CUR, 30 °C. The method, then: Supersaturation of CUR and CUR-ART were measured in SGF and SIF (without enzyme) medium at 30 °C. The supersaturated solution (CUR 100 µg/mL dissolved in 5 mL of SGF/SIF fluid) was stirred at 800 rpm using a magnetic stirrer at 30 °C. After regular intervals of time 2, 4, 6, 12 and 24 h the solution concentration of curcumin was determined at 420 nm maxima on a Thermo Scientific Evolution 300 UV-Vis spectrometer (Thermo Scientific, Waltham, MA, USA).

Series [4] can be described thus: Pharmacokinetic study, oral gavage, curcumin in plasma by HPLC. The conditions noted are these: oral administration, SD rats.
Method: Sprague-Dawley rats (200 ± 50 g) were obtained from Sainath Agencies Limited (Hyderabad, India). Animals were acclimatized for 1 week prior to experimentation in a temperature-controlled, 12/12 h light/dark room, and were allowed standard laboratory food and water. The rats were fasted overnight (~18 h) with free access to water before the experiment.
All compounds (200 mg/kg) were suspended in 1% sodium carboxymethylcellulose (CMC) separately and administered by oral gavage. Blood (0.4 mL) was withdrawn from retro-orbital plexus into lithium heparin tube at the following times after drug administration: 30, 45, 60, 90, 120, 180, 240, 360, 480 and 720 min. […]
Curcumin Plasma concentrations of CUR were analyzed by HPLC (Shimadzu, Mumbai, India). The area under the curve (AUC) for serum concentration versus time plots was calculated by linear trapezoidal rate. […]
The HPLC analyses were performed using a Shimadzu Prominence model LC-20AD equipped with 20 mL injection loop, and a photodiode array detector and CUR detected at 420 nm. […]
The standard curve was calculated by a linear relationship between concentration and area with regression factor R = 0.999. The Area under the curve (AUC) for serum concentration vs. Time plots was calculated by the linear trapezoidal rule. […]
On the set-up of series [5]: method as in PMID 17999464, PMID 1529022. The conditions noted are these: cited from earlier work.
Where [6] appears, read: pure curcumin, reference not given.

Like-named read-outs stand apart in the source and are kept apart here.

Turning to `C[C@@H]1CC[C@H]2[C@@H](C)C(=O)O[C@@H]3O[C@@]4(C)CC[C@@H]1[C@]32OO4` [ART, Artemisinin], the “percentage of inhibition of tumor growth” value in the series on PANC-1 xenograft tumor (50 mg/kg p.o. daily) is 29.22%.
Turning to `COc1cccc2c1C(=O)c1c(O)c3c(c(O)c1C2=O)C[C@@](O)(C(=O)CO)C[C@@H]3O[C@H]1C[C@H](N)[C@H](O)[C@H](C)O1` [doxorubicin], the “percentage of inhibition of tumor growth” value in the series on PANC-1 xenograft tumor (2 mg/kg i.v. daily) is recorded as 69.97%. Also, in the series with PANC-1 xenograft tumor (p < 0.0001, Panc-1 xenograft in nude mice), the “effect on tumor size compared to other solids and controls” value was “decreased tumor size significantly”.
With Curcumin, in series [1], the “plasma concentration by HPLC” value was “no plasma concentration for curcumin (crystalline) could be detected”. The “percentage of inhibition of tumor growth” value with PANC-1 xenograft tumor (50 mg/kg p.o. daily) is given as 41.23%. The “detection by HPLC at higher dosage levels” value in series [2] (dosage >1 g/kg, ref recent reports) was “could not be detected”. Further, the half-life (as a rule, the time needed for the level to fall by half in the phase considered) in series [2] (pure curcumin in crystalline form, reference not given) was 45 to 60 min. In addition, in series [2] (setting [6]), the half-life was below 60 min and the “time in which it decomposes” value is recorded as “less than 1 h”. Besides, the “precipitation / residence time of solubilized CUR” value in series [3] is recorded as “precipitated faster than CUR-ART”. Besides, in series [4], the “detectable curcumin levels in the serum” value is recorded as “did not show any detectable levels”. In addition, the aqueous solubility (as a rule, how much of the substance goes into solution per volume) in series [5] is 7.8 µg/mL.
